Test results from patent US9120805B2, “Substituted pyrrolo[1,2-A]pyrazin-1-ones and pyrazolo[1,5-A]pyrazin-4-ones as inhibitors of tankyrase and poly(ADP-ribose)polymerase activity” (Merck Patent GmbH, priority 2012, dated 2015).
Structures can show the parent of a compound that is named as a salt.

Legend:
[1] = target: T1, GST-tagged Tankyrase-1 (1023-1327 aa) (Homo sapiens, UniProt O95271); assay: Tankyrase 1 autoparsylation assay (HTRF enzyme assay); assay type: biochemical
T1 construct: GST-tagged Tankyrase-1 (1023-1327 aa)
T1 sequence (O95271 1023-1327): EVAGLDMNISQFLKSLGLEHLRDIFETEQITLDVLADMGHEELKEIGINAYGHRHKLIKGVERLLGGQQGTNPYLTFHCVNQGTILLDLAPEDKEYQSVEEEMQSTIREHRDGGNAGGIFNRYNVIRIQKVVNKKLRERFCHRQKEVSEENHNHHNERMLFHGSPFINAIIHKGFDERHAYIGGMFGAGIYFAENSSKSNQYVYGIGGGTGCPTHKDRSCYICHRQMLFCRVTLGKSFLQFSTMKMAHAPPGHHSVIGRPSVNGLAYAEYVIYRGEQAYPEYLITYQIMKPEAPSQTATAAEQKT
Description: (§1) Biochemical Activity Testing of Tankyrase 1 and 2: Autoparsylation Assay
(§2) The autoparsylation assay is run in two steps: the enzymatic reaction in which GST-tagged Tankyrase-1, resp Tankyrase-2 transferred biotinylated ADP-ribose to itself from biotinylated NAD as co-substrate and the detection reaction where a time resolved FRET between cryptate labelled anti-GST bound to the GST tag of the enzyme and Xlent® labelled-streptavidin bound the biotin-parsylation residue is analysed. The autoparsylation activity was detectable directly via the increase in HTRF signal.
(§3) The autoparsylation assay is performed as 384-well HTRF® (Cisbio, Codolet, France) assay format in Greiner low volume nb 384-well microtiter plates and is used for high throughput screen. 250 nM GST-tagged Tankyrase-1 (1023-1327 aa), respectively about 250 nM GST-tagged Tankyrase-2 (873-1166 aa) and 5 μM bio-NAD (Biolog, Life science Inst., Bremen, Germany) as co-substrate are incubated in a total volume of 5 μl (50 mM HEPES, 4 mM Mg-chloride, 0.05% Pluronic F-68, 1.4 mM DTT, 0.5% DMSO, pH 7.7) in the absence or presence of the test compound (10 dilution concentrations) for 90 min at 30° C. The reaction is stopped by the addition of 1 μl 50 mM EDTA solution. 2 μl of the detection solution (1.6 μM SA-Xlent® (Cisbio, Codolet, France), 7.4 nM Anti-GST-K® (Eu-labelled anti-GST, Cisbio, Codolet, France) in 50 mM HEPES, 800 mM KF, 0.1% BSA, 20 mM EDTA, 0.1% CHAPS, pH 7.0) are added. After 1 h incubation at room temperature the HTRF is measured with an Envision multimode reader (Perkin Elmer LAS Germany GmbH) at excitation wavelength 340 nm (laser mode) and emission wavelengths 615 nm and 665 nm. The ratio of the emission signals is determined. The full value used is the inhibitor-free reaction. The pharmacological zero value used is XAV-939 (Tocris) in a final concentration of 5 μM. The inhibitory values (IC50) are determined using either the program Symyx Assay Explorer® or Condosseo® from GeneData.

[2] = target: T2, GST-tagged Tankyrase-2 (873-1166 aa) (Homo sapiens, UniProt Q9H2K2); assay: Tankyrase 2 autoparsylation assay (HTRF enzyme assay); assay type: biochemical
T2 construct: GST-tagged Tankyrase-2 (873-1166 aa)
T2 sequence (Q9H2K2 873-1166): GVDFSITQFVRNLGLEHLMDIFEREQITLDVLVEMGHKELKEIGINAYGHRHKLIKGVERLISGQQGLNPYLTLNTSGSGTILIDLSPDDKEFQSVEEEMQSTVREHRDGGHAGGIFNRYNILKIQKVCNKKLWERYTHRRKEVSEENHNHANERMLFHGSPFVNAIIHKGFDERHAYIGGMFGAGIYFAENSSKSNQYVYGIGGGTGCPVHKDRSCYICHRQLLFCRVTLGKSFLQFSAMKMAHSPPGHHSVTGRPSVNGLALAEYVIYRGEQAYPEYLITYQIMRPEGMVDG
Description: as §1, §2, §3

tankyrase 1/2 = assay: Cellular inhibition of Tankyrase: increase of Axin2 level in DLD1 cells (Luminex); assay type: cell-based; settings: 24 hours, read-out: EC50 tankyrase 1/2 (cell assay)
Description: Measurement of Cellular Inhibition of Tankyrase
Since Tankyrases have been described to modulate cellular level of Axin2 (Huang et al., 2009; Nature) the increase of Axin2 level is used as read-out for determination of cellular inhibition of Tankyrases in a Luminex based assay.
Cells of the colon carcinoma cell line DLD1 are plated in 96 well plates with 1.5×10^4 cells per well. Next day, cells are treated with a serial dilution of test compound in seven steps as triplicates with a final DMSO concentration of 0.3%. After 24 hours, cells are lysed in lysis buffer (20 mM Tris/HCl pH 8.0, 150 mM NaCl, 1% NP40, 10% Glycerol) and lysates are cleared by centrifugation through a 96 well filter plate (0.65 μm). Axin2 protein is isolated from cell lysates by incubation with a monoclonal anti-Axin2 antibody (R&D Systems #MAB6078) that is bound to fluorescent carboxybeads. Then, bound Axin2 is specifically detected with a polyclonal anti-Axin2 antibody (Cell Signaling #2151) and an appropriate PE-fluorescent secondary antibody. The amount of isolated Axin2 protein is determined in a Luminex^200 machine (Luminex Corporation) according to the manufacturer's instruction by counting 100 events per well. Inhibition of Tankyrase by test compounds results in higher levels of Axin2 which directly correlates with an increase of detectable fluorescence. As controls cells are treated with solvent alone (neutral control) and with a Tankyrase reference inhibitor IWR-2 (3E-06 M) which refers as control for maximum increase of Axin2. For analysis, the obtained data are normalized against the untreated solvent control and fitted for determination of the EC50 values using the Assay Explorer software (Accelrys).

SMILES: Cc1nc(-c2ccc(-c3cn4nc(CO)cc4c(=O)[nH]3)cc2)no1 [Compound A21, 2-hydroxymethyl-6-[4-(5-methyl-[1,2,4]oxadiazol-3-yl)-phenyl]-5H-pyrazolo[1,5-a]pyrazin-4-one]
- IC50 [1]: 0.3 to 3 µM
- IC50 [2]: 3 to 50 µM

SMILES: CC(C)(O)c1ccc(-c2cn3nc(C(F)(F)F)cc3c(=O)[nH]2)cc1 [Compound A69, 6-[4-(1-hydroxy-1-methyl-ethyl)phenyl]-2-trifluoromethyl-5H-pyrazolo[1,5-a]pyrazin-4-one]
- IC50 [1]: 0.3 to 3 µM
- IC50 [2]: 3 to 50 µM
- EC50 (tankyrase 1/2): 3 to 50 µM

SMILES: O=c1[nH]c(-c2ccc(Br)cc2)cn2nc(CBr)cc12 [Compound A36, 2-bromomethyl-6-(4-bromo-phenyl)-5H-pyrazolo[1,5-a]pyrazin-4-one]
- IC50 [1]: 0.3 to 3 µM
- IC50 [2]: 3 to 50 µM

SMILES: O=c1[nH]c(-c2ccc(C3(O)CNC3)cc2)cn2cccc12 [Compound A86, 3-[4-(3-hydroxy-azetidin-3-yl)-phenyl]-2H-pyrrolo[1,2-a]pyrazin-1-one hydrochloride]
- IC50 [1]: 0.3 to 3 µM
- IC50 [2]: 0.3 to 3 µM
- EC50 (tankyrase 1/2): 3 to 50 µM

SMILES: COCCn1cc(-c2ccc(-c3cn4cccc4c(=O)[nH]3)cc2)cn1 [Compound A26, 3-{4-[1-(2-methoxy-ethyl)-1H-pyrazol-4-yl]-phenyl}-2H-pyrrolo[1,2-a]pyrazin-1-one]
- IC50 [1]: < 0.3 µM
- IC50 [2]: < 0.3 µM
- EC50 (tankyrase 1/2): 0.3 to 3 µM

SMILES: O=c1[nH]c(-c2ccc(-c3cnn(CCO)c3)cc2)cn2cccc12 [Compound A32, 3-{4-[1-(2-hydroxy-ethyl)-1H-pyrazol-4-yl]-phenyl}-2H-pyrrolo[1,2-a]pyrazin-1-one]
- IC50 [1]: < 0.3 µM
- IC50 [2]: < 0.3 µM
- EC50 (tankyrase 1/2): 0.3 to 3 µM

SMILES: Cc1ccc2c(=O)[nH]c(-c3ccc(Br)cc3)cn12 [Compound A94]
- IC50 [1]: < 0.3 µM
- IC50 [2]: 0.3 to 3 µM
- EC50 (tankyrase 1/2): 0.3 to 3 µM

SMILES: O=c1[nH]c(-c2ccc(N3CCCC3)cc2)cn2nc(CO)cc12 [Compound A19, 2-hydroxymethyl-6-(4-pyrrolidin-1-yl-phenyl)-5H-pyrazolo[1,5-a]pyrazin-4-one]
- IC50 [1]: < 0.3 µM
- IC50 [2]: 0.3 to 3 µM
- EC50 (tankyrase 1/2): 0.3 to 3 µM

SMILES: CC(C)n1cc(-c2cn3nc(CO)cc3c(=O)[nH]2)cn1 [Compound A22, 2-hydroxymethyl-6-(1-isopropyl-1H-pyrazol-4-yl)-5H-pyrazolo[1,5-a]pyrazin-4-one]
- IC50 [1]: 3 to 50 µM

SMILES: CC(C)(C)c1ccc(-c2cn3nc(CF)cc3c(=O)[nH]2)cc1 [Compound A64, 6-(4-tert-butyl-phenyl)-2-fluoromethyl-5H-pyrazolo[1,5-a]pyrazin-4-one]
- IC50 [1]: < 0.3 µM
- IC50 [2]: 0.3 to 3 µM
- EC50 (tankyrase 1/2): 0.3 to 3 µM

SMILES: C=C(CCCO)c1ccc(-c2cn3cc(F)cc3c(=O)[nH]2)cc1 (single isomer, unassigned) [Compound A74, 7-fluoro-3-[4-(4-hydroxy-1-methylene-butyl)-phenyl]-2H-pyrrolo[1,2-a]pyrazin-1-one]
- IC50 [1]: < 0.3 µM
- IC50 [2]: 0.3 to 3 µM
- EC50 (tankyrase 1/2): 0.3 to 3 µM

SMILES: Cn1cc(-c2cn3cccc3c(=O)[nH]2)cn1 [Compound A14, 3-(1-methyl-1H-pyrazol-4-yl)-2H-pyrrolo[1,2-a]pyrazin-1-one]
- IC50 [1]: 0.3 to 3 µM
- IC50 [2]: 0.3 to 3 µM

SMILES: O=c1[nH]c(-c2ccc(C3CCNCC3)cc2)cn2cc(Cl)cc12 [Compound A78, 7-Chloro-3-(4-piperidin-4-yl-phenyl)-2H-pyrrolo[1,2-a]pyrazin-1-one]
- EC50 (tankyrase 1/2): 0.3 to 3 µM

SMILES: Cc1cc2c(=O)[nH]c(-c3ccc(OC(F)(F)F)cc3)cn2n1 [Compound A34, 2-methyl-6-(4-trifluoromethoxy-phenyl)-5H-pyrazolo[1,5-a]pyrazin-4-one]
- IC50 [1]: < 0.3 µM
- IC50 [2]: 0.3 to 3 µM
- EC50 (tankyrase 1/2): 0.3 to 3 µM

SMILES: O=c1[nH]c(-c2ccc(C3CCNCC3)cc2)cn2cc(F)cc12 [Compound A77, 7-fluoro-3-(4-piperidin-4-yl-phenyl)-2H-pyrrolo[1,2-a]pyrazin-1-one]
- IC50 [1]: < 0.3 µM
- IC50 [2]: 0.3 to 3 µM
- EC50 (tankyrase 1/2): 0.3 to 3 µM

SMILES: COC(=O)c1ccc(-c2cn3cccc3c(=O)[nH]2)cc1 [Compound A28, 4-(1-oxo-1,2-dihydro-pyrrolo[1,2-a]pyrazin-3-yl)-benzoic acid methyl ester]
- IC50 [1]: < 0.3 µM
- IC50 [2]: 0.3 to 3 µM
- EC50 (tankyrase 1/2): 0.3 to 3 µM

SMILES: O=c1[nH]c(-c2ccc(-c3cnn(CCN4CCCC4)c3)cc2)cn2cccc12 [Compound A27, 3-{4-[1-(2-pyrrolidin-1-yl-ethyl)-1H-pyrazol-4-yl]-phenyl}-2H-pyrrolo[1,2-a]pyrazin-1-one]
- IC50 [1]: < 0.3 µM
- IC50 [2]: < 0.3 µM
- EC50 (tankyrase 1/2): 0.3 to 3 µM

SMILES: CC(C)(C)c1ccc(-c2cn3nc(C(F)(F)F)cc3c(=O)[nH]2)cc1 [Compound A55, 6-(4-tert-butyl-phenyl)-2-trifluoromethyl-5H-pyrazolo[1,5-a]pyrazin-4-one]
- IC50 [1]: < 0.3 µM

SMILES: O=c1[nH]c(-c2ccc(OC(F)(F)F)cc2)cn2nccc12 [Compound A16, 6-(4-trifluoromethoxy-phenyl)-5H-pyrazolo[1,5-a]pyrazin-4-one]
- IC50 [1]: 0.3 to 3 µM
- IC50 [2]: 3 to 50 µM

SMILES: Cc1cc2c(=O)[nH]c(-c3cnn(C(C)(C)C)c3)cn2n1 [Compound A52, 2-methyl-6-(1-tert-butyl-1H-pyrazol-4-yl)-5H-pyrazolo[1,5-a]pyrazin-4-one]
- IC50 [1]: 0.3 to 3 µM
- IC50 [2]: 3 to 50 µM

SMILES: O=c1[nH]c(-c2ccc(Br)cc2)cn2cc(F)cc12 [Compound A58, 3-(4-bromo-phenyl)-7-fluoro-2H-pyrrolo[1,2-a]pyrazin-1-one]
- IC50 [1]: < 0.3 µM
- IC50 [2]: < 0.3 µM

SMILES: O=c1[nH]c(-c2ccc(OC(F)(F)F)cc2)cn2nc(CCl)cc12 [Compound A33, 2-chloromethyl-6-(4-trifluoromethoxy-phenyl)-5H-pyrazolo[1,5-a]pyrazin-4-one]
- IC50 [1]: 0.3 to 3 µM

SMILES: O=c1[nH]c(-c2ccc(-c3cnn(CCOC4CCCCO4)c3)cc2)cn2cccc12 (stereo not drawn) [Compound A31, 3-(4-{1-[2-(tetrahydro-pyran-2-yloxy)-ethyl]-1H-pyrazol-4-yl}-phenyl)-2H-pyrrolo[1,2-a]pyrazin-1-one]
- IC50 [1]: < 0.3 µM
- IC50 [2]: 0.3 to 3 µM

SMILES: CC1(C)CCC(C)(C)c2cc(-c3cn4cccc4c(=O)[nH]3)ccc21 [Compound A5, 3-(5,5,8,8-tetramethyl-5,6,7,8-tetrahydro-naphthalen-2-yl)-2H-pyrrolo[1,2-a]pyrazin-1-one]
- IC50 [1]: 3 to 50 µM

SMILES: CC(C)Oc1ccc(-c2cn3nc(CO)cc3c(=O)[nH]2)cc1 [Compound A20, 2-hydroxymethyl-6-(4-isopropoxy-phenyl)-5H-pyrazolo[1,5-a]pyrazin-4-one]
- IC50 [1]: 0.3 to 3 µM
- IC50 [2]: 3 to 50 µM

SMILES: O=c1[nH]c(-c2ccc(Br)cc2)cn2cccc12 [Compound A24, 3-(4-bromo-phenyl)-2H-pyrrolo[1,2-a]pyrazin-1-one]
- IC50 [1]: < 0.3 µM
- IC50 [2]: < 0.3 µM

SMILES: O=c1[nH]c(-c2ccc(Br)cc2)cn2nc(C(F)(F)F)cc12 [Compound A67, 6-(4-bromo-phenyl)-2-trifluoromethyl-5H-pyrazolo[1,5-a]pyrazin-4-one]
- IC50 [1]: 0.3 to 3 µM

SMILES: CC(C)(O)c1ccc(-c2cn3cc(C#N)cc3c(=O)[nH]2)cc1 [Compound A62, 3-[4-(1-hydroxy-1-methyl-ethyl)-phenyl]-1-oxo-1,2-dihydro-pyrrolo[1,2-a]pyrazine-7-carbonitrile]
- EC50 (tankyrase 1/2): 3 to 50 µM

SMILES: O=c1[nH]c(-c2ccccc2)cn2cccc12 [Compound A2, 3-phenyl-2H-pyrrolo[1,2-a]pyrazin-1-one]
- IC50 [1]: 0.3 to 3 µM
- IC50 [2]: 0.3 to 3 µM
